This experiment addresses KRas G12D (Homo sapiens (Human), UniProt P01116, G12D). In words: KRas G12D Binding Assay (TR-FRET displacement of Cy5 labelled tracer). The conditions noted are these: GDP-loaded KRAS G12D (amino acids 1:169), 60 minute incubation at 22° C. On the procedure:
After a 60 minute incubation at 22° C., the reaction was measured using a PerkinElmer EnVision multimode plate reader via TR-FRET dual wavelength detection, and the percent of control (POC) calculated using a ratiometric emission factor. […] The POC values were fit to a 4-parameter logistic curve and the IC50 value was determined as the concentration where the curve crosses 50 POC.
ND stands for “not determined.”
For orientation: In TR-FRET formats the signal depends on donor and acceptor labels being close together.

Chain of KRas G12D (P01116 other isoform, or with tags, fused parts or gaps G12D): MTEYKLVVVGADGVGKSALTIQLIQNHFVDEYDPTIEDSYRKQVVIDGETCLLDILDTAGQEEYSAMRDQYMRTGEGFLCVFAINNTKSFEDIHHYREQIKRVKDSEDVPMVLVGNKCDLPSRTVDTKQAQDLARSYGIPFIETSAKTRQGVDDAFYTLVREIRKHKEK

Turning to `Fc1c(-c2ccccc2C(F)F)ncc2c(N3C[C@H]4CC[C@@H](C3)N4)nc(OCC34CCCN3CCC4)nc12` [Example 293, 4-((1R,5S)-3,8-diazabicyclo[3.2.1]octan-3-yl)-7-(2-(difluoromethyl)phenyl)-8-fluoro-2-((hexahydro-1H-pyrrolizin-7a-yl)methoxy)pyrido[4,3-d]pyrimidine], the half-inhibitory concentration (IC50) (in general, the point on the concentration scale where inhibition reaches its midpoint) is 692 nM.

Compound `Fc1c(-c2cccc3cccc(Cl)c23)ncc2c(N3C[C@H]4CC[C@@H](C3)N4)nc(OCC34CCCN3CCOC4)nc12` (stereo partly drawn) [Example 200, 8a-(((4-((1R,5S)-3,8-diazabicyclo[3.2.1]octan-3-yl)-7-(8-chloronaphthalen-1-yl)-8-fluoropyrido[4,3-d]pyrimidin-2-yl)oxy)methyl)hexahydro-1H-pyrrolo[2,1-c][1,4]oxazine] returned a concentration for half-maximal inhibition (IC50) of 230 nM.

As to `CN1CCc2cccc(Oc3nc(N4C[C@H]5CC[C@@H](C4)N5)c4cnc(-c5cccc6cccc(Cl)c56)c(F)c4n3)c2C1` [Example 378, 4-((1R,5S)-3,8-diazabicyclo[3.2.1]octan-3-yl)-7-(8-chloronaphthalen-1-yl)-8-fluoro-2-((2-methyl-1,2,3,4-tetrahydroisoquinolin-8-yl)oxy)pyrido[4,3-d]pyrimidine], the IC50 amounted to 6250 nM. To `Oc1cc(-c2ncc3c(N4CC5CCC(C4)N5)nc(OCC45CCCCN4CCC5)nc3c2F)c2ccccc2c1` (stereo not drawn) [Example 463, 4-(4-(3,8-diazabicyclo[3.2.1]octan-3-yl)-8-fluoro-2-((octahydroindolizin-8a-yl)methoxy)pyrido[4,3-d]pyrimidin-7-yl)naphthalen-2-ol] belongs 0.012 nM; to `CCc1cccc2cc(O)cc(-c3ncc4c(N5CC6CCC(C5)N6)nc(OC[C@]56CCCN5[C@@H](COC(=O)N(C)C)CC6)nc4c3F)c12` [Example 434, 7a-(((4-((1R,5S)-3,8-diazabicyclo[3.2.1]octan-3-yl)-7-(8-ethyl-3-hydroxynaphthalen-1-yl)-8-fluoropyrido[4,3-d]pyrimidin-2-yl)oxy)methyl)hexahydro-1H-pyrrolizin-3-yl)methyl dimethyl carbamate], 0.7 nM. To `Fc1c(-c2cccc3cccc(-c4c[nH]nn4)c23)ncc2c(N3C[C@H]4CC[C@@H](C3)N4)nc(OCC34CCCN3CCC4)nc12` [Example 180, 7-(8-(1H-1,2,3-triazol-4-yl)naphthalen-1-yl)-4-((1R,5S)-3,8-diazabicyclo[3.2.1]octan-3-yl)-8-fluoro-2-((hexahydro-1H-pyrrolizin-7a-yl)methoxy)pyrido[4,3-d]pyrimidine] belongs 76.1 nM; to `CC#Cc1cccc2cccc(-c3ncc4c(N5C[C@H]6CC[C@@H](C5)N6)nc(OCC56CCCN5CCC6)nc4c3F)c12` [Example 195, 4-((1R,5S)-3,8-diazabicyclo[3.2.1]octan-3-yl)-8-fluoro-7-(8-(prop-1-yn-1-yl)naphthalen-1-yl)-2-((tetrahydro-1H-pyrrolizin-7a(5H)-yl)methoxy)pyrido[4,3-d]pyrimidine], 20.7 nM; to `N#CC[C@@H]1C[C@@H]2CN(c3nc(OCC45CCCN4CCC5)nc4c(F)c(-c5cc(O)cc6ccccc56)ncc34)C[C@H]1N2` [Example 338, 2-((1R,5S,6S)-3-(8-fluoro-7-(3-hydroxynaphthalen-1-yl)-2-((tetrahydro-1H-pyrrolizin-7a(5H)-yl)methoxy)pyrido[4,3-d]pyrimidin-4-yl)-3,8-diazabicyclo[3.2.1]octan-6-yl)acetonitrile], 33.1 nM. To `Cc1cccc2cccc(-c3ncc4c(N5C[C@H]6CC[C@@H](C5)N6)nc(OCC56CCCN5CCC6)nc4c3F)c12` [Example 334, 4-((1R,5S)-3,8-diazabicyclo[3.2.1]octan-3-yl)-8-fluoro-7-(8-methylnaphthalen-1-yl)-2-((tetrahydro-1H-pyrrolizin-7a(5H)-yl)methoxy)pyrido[4,3-d]pyrimidine] belongs 10 nM.

The record behind these values is US20230279025A1, “KRAS G12D INHIBITORS” (Mirati Therapeutics, Inc., priority 2020, published 2023).
